Source: patent publication US8192962B2, “Processes for detecting toxic substances” (Daikin Industries, Ltd., priority 2001, dated 2012)

Test system: Mitochondria-located protein genes
Assay: DNA chip mRNA expression in yeast, mitochondria-located protein genes (Table 2)
Assay type: cell-based, Saccharomyces cerevisiae S288C
Conditions: cells incubated two hours with the chemical substance
Method in brief: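 First, S288C yeast grown in YPD at 25° C. are dosed in log phase with one toxicant (growth-inhibiting, not lethal) for 2 h. Next, total RNA is extracted and poly(A) mRNA isolated and reverse-transcribed with Cy3/Cy5-dUTP. Finally, whole-genome chip fluorescence is read relative to unexposed cells.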

With `COc1cc(CNC(=O)CCCCC=CC(C)C)ccc1O` [(12), 8-methyl-N-vanillyl-6-nonenamide] the “The level of expressed mRNA in the presence of chemical substance/The level of expressed mRNA in the absence of chemical substance” value (yeast gene YAL039C) was 1.4, the “The level of expressed mRNA in the presence of chemical substance/The level of expressed mRNA in the absence of chemical substance” value (yeast gene YBL022C) was 0.9 and the “The level of expressed mRNA in the presence of chemical substance/The level of expressed mRNA in the absence of chemical substance” value (yeast gene YBL030C) was 0.9. The “The level of expressed mRNA in the presence of chemical substance/The level of expressed mRNA in the absence of chemical substance” value (yeast gene YBL038W) was 0.7, the “The level of expressed mRNA in the presence of chemical substance/The level of expressed mRNA in the absence of chemical substance” value (yeast gene YBL099W) was 1.0 and the “The level of expressed mRNA in the presence of chemical substance/The level of expressed mRNA in the absence of chemical substance” value (yeast gene YBR003W) was 0.8. The “The level of expressed mRNA in the presence of chemical substance/The level of expressed mRNA in the absence of chemical substance” value (yeast gene YBR044C) was 0.8, the “The level of expressed mRNA in the presence of chemical substance/The level of expressed mRNA in the absence of chemical substance” value (yeast gene YBR091C) was 0.8 and the “The level of expressed mRNA in the presence of chemical substance/The level of expressed mRNA in the absence of chemical substance” value (yeast gene YBR122C) was 0.7. The “The level of expressed mRNA in the presence of chemical substance/The level of expressed mRNA in the absence of chemical substance” value (yeast gene YBR185C) was 0.7, the “The level of expressed mRNA in the presence of chemical substance/The level of expressed mRNA in the absence of chemical substance” value (yeast gene YBR221C) was 1.3 and the “The level of expressed mRNA in the presence of chemical substance/The level of expressed mRNA in the absence of chemical substance” value (yeast gene YBR251W) was 1.1. For the same compound, the “The level of expressed mRNA in the presence of chemical substance/The level of expressed mRNA in the absence of chemical substance” value (yeast gene YBR282W) was 0.8, the “The level of expressed mRNA in the presence of chemical substance/The level of expressed mRNA in the absence of chemical substance” value (yeast gene YCL057W) was 1.0 and the “The level of expressed mRNA in the presence of chemical substance/The level of expressed mRNA in the absence of chemical substance” value (yeast gene YCR046C) was 1.1. For the same compound, the “The level of expressed mRNA in the presence of chemical substance/The level of expressed mRNA in the absence of chemical substance” value (yeast gene YCR083W) was 1.1, the “The level of expressed mRNA in the presence of chemical substance/The level of expressed mRNA in the absence of chemical substance” value (yeast gene YDL067C) was 1.0 and the “The level of expressed mRNA in the presence of chemical substance/The level of expressed mRNA in the absence of chemical substance” value (yeast gene YDL181W) was 0.9. For the same compound, the “The level of expressed mRNA in the presence of chemical substance/The level of expressed mRNA in the absence of chemical substance” value (yeast gene YDL198C) was 1.2, the “The level of expressed mRNA in the presence of chemical substance/The level of expressed mRNA in the absence of chemical substance” value (yeast gene YDR079W) was 1.1 and the “The level of expressed mRNA in the presence of chemical substance/The level of expressed mRNA in the absence of chemical substance” value (yeast gene YDR178W) was 1.3. The “The level of expressed mRNA in the presence of chemical substance/The level of expressed mRNA in the absence of chemical substance” value (yeast gene YDR231C) was 1.1, the “The level of expressed mRNA in the presence of chemical substance/The level of expressed mRNA in the absence of chemical substance” value (yeast gene YDR258C) was 1.8 and the “The level of expressed mRNA in the presence of chemical substance/The level of expressed mRNA in the absence of chemical substance” value (yeast gene YDR298C) was 1.1. For the same compound, the “The level of expressed mRNA in the presence of chemical substance/The level of expressed mRNA in the absence of chemical substance” value (yeast gene YDR347W) was 0.8, the “The level of expressed mRNA in the presence of chemical substance/The level of expressed mRNA in the absence of chemical substance” value (yeast gene YDR377W) was 0.9 and the “The level of expressed mRNA in the presence of chemical substance/The level of expressed mRNA in the absence of chemical substance” value (yeast gene YDR529C) was 0.6. For the same compound, the “The level of expressed mRNA in the presence of chemical substance/The level of expressed mRNA in the absence of chemical substance” value (yeast gene YEL024W) was 0.8, the “The level of expressed mRNA in the presence of chemical substance/The level of expressed mRNA in the absence of chemical substance” value (yeast gene YEL039C) was 0.6 and the “The level of expressed mRNA in the presence of chemical substance/The level of expressed mRNA in the absence of chemical substance” value (yeast gene YER178W) was 1.3. For the same compound, the “The level of expressed mRNA in the presence of chemical substance/The level of expressed mRNA in the absence of chemical substance” value (yeast gene YFL016C) was 1.0, the “The level of expressed mRNA in the presence of chemical substance/The level of expressed mRNA in the absence of chemical substance” value (yeast gene YGL018C) was 1.0 and the “The level of expressed mRNA in the presence of chemical substance/The level of expressed mRNA in the absence of chemical substance” value (yeast gene YGL187C) was 0.8. For the same compound, the “The level of expressed mRNA in the presence of chemical substance/The level of expressed mRNA in the absence of chemical substance” value (yeast gene YGL191W) was 0.9, the “The level of expressed mRNA in the presence of chemical substance/The level of expressed mRNA in the absence of chemical substance” value (yeast gene YGR008C) was 2.0 and the “The level of expressed mRNA in the presence of chemical substance/The level of expressed mRNA in the absence of chemical substance” value (yeast gene YGR028W) was 1.5. The “The level of expressed mRNA in the presence of chemical substance/The level of expressed mRNA in the absence of chemical substance” value (yeast gene YGR062C) was 1.0, the “The level of expressed mRNA in the presence of chemical substance/The level of expressed mRNA in the absence of chemical substance” value (yeast gene YGR076C) was 1.0 and the “The level of expressed mRNA in the presence of chemical substance/The level of expressed mRNA in the absence of chemical substance” value (yeast gene YGR082W) was 0.8. For the same compound, the “The level of expressed mRNA in the presence of chemical substance/The level of expressed mRNA in the absence of chemical substance” value (yeast gene YGR174C) was 0.9, the “The level of expressed mRNA in the presence of chemical substance/The level of expressed mRNA in the absence of chemical substance” value (yeast gene YGR244C) was 1.9 and the “The level of expressed mRNA in the presence of chemical substance/The level of expressed mRNA in the absence of chemical substance” value (yeast gene YHR008C) was 0.7. The “The level of expressed mRNA in the presence of chemical substance/The level of expressed mRNA in the absence of chemical substance” value (yeast gene YIL155C) was 1.4, the “The level of expressed mRNA in the presence of chemical substance/The level of expressed mRNA in the absence of chemical substance” value (yeast gene YJL096W) was 1.0 and the “The level of expressed mRNA in the presence of chemical substance/The level of expressed mRNA in the absence of chemical substance” value (yeast gene YJL102W) was 0.8. The “The level of expressed mRNA in the presence of chemical substance/The level of expressed mRNA in the absence of chemical substance” value (yeast gene YJL133W) was 0.8, the “The level of expressed mRNA in the presence of chemical substance/The level of expressed mRNA in the absence of chemical substance” value (yeast gene YJL166W) was 0.7 and the “The level of expressed mRNA in the presence of chemical substance/The level of expressed mRNA in the absence of chemical substance” value (yeast gene YJL180C) was 0.8. For the same compound, the “The level of expressed mRNA in the presence of chemical substance/The level of expressed mRNA in the absence of chemical substance” value (yeast gene YJR045C) was 1.0 and the “The level of expressed mRNA in the presence of chemical substance/The level of expressed mRNA in the absence of chemical substance” value (yeast gene YJR077C) was 1.0.
